Assay results reported in patent publication US7348347B2, “Substituted 4,5,6,7-tetrahydrobenzthiazol-2-ylamine compounds” (Gruenenthal GmbH, priority 2004, dated 2008).

Molecular target: T1, 5-HT uptake (Rattus norvegicus, UniProt P31652)
T1 construct: from tissue; host or cells: rat brain synaptosomes (P2 fraction) from marrow (medulla) and pons
Assay: Inhibition of 5-HT uptake in rat brain synaptosomes
Format: biochemical
Settings: [3H]-5-HT
Method: The relevant literature reference is enclosed herein by reference and is to be regarded as part of the disclosure.
The homogenate is centrifuged at 4° C. for 10 minutes at 1000 g. Following subsequent centrifugation at 17,000 g for 55 minutes, the synaptosomes (P2 fraction) are obtained, which are then resuspended in 0.32 M […] (0.5 mL/100 mg of the original weight).
The respective uptake was measured in a 96 well microtiter plate. The volume was 250 μL and the incubation was carried out at room temperature (ca 20-25° C.) under a blanket of oxygen.
The 96 samples through were then filtered through a Unifilter GF/B® microtiter plate (Packard) and washed with 200 mL of incubated buffer with the aid of a “Brabdel Cell-Harvester MPXRI 96T”. The Unifilter GF/B plate was dried at 55° C. over a period of 1 h. The plate was then sealed with a back seal® (Packard) and there were then added 35 μL of scintillant fluid per well (Ultima Gold, Packard).
A detailed description of the method is disclosed in the literature, for example, in M. Ch.

[1] = rat synaptosomes (medulla and pons)

T1 sequence (P31652 whole entry): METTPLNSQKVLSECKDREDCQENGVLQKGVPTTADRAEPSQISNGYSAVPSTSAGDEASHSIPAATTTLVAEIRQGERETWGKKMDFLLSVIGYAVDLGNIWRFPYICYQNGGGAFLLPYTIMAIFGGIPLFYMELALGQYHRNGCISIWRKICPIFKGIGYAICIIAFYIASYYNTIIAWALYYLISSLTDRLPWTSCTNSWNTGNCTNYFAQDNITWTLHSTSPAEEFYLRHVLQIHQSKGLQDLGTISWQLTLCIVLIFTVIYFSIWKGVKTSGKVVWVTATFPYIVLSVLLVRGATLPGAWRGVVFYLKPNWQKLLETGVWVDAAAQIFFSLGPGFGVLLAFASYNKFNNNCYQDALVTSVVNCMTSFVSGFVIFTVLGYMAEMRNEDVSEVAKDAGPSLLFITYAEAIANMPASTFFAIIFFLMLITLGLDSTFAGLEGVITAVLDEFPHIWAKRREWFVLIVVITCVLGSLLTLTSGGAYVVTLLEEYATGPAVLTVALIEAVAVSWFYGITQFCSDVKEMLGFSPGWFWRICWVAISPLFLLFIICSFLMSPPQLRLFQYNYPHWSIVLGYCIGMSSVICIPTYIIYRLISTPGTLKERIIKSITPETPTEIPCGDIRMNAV

Row | Compound | inhibition at 10 µM [1] | % Inhibition of 5-HT uptake [10 μM] [1] | other results
1 | 2-[2-(3,5-Difluorophenyl)acetylamino]-4,5,6,7-tetrahydrobenzthiazol-4-carboxylic acid[1-(2-ethoxybenzyl)pyrrolidin-3-yl]methylamide [Example 44] |  |  | % Inhibition of 5-HT uptake [10 μM] (rat synaptosomes (and pons)): 41%
2 | CN(C)CCN1CCN(C(=O)C2CCCc3sc(NC(=O)CC4CCCCC4)nc32)CC1 (stereo not shown) [Example 1, 2-Cyclohexyl-N-{4-[4-(2-Dimethylaminoethyl)piperazin-1-carbonyl]-4,5,6,7-tetrahydrobenzthiazol-2-yl}acetamide] | 65% |  | 
3 | CN1CCCN(C(=O)C2CCCc3sc(NC(=O)COc4ccccc4)nc32)CC1 (stereo not shown) [Example 2, N-[4-(4-Methyl-[1,4]diazepam-1-carbonyl)-4,5,6,7-tetrahydrobenzthiazol-2-yl]-2-phenoxy acetamide] |  |  | % Inhibition of 5-HT uptake [10 μM] (rat synaptosomes (and pons)): 58%
4 | CN1CCN(C(=O)C2CCCc3sc(NC(=O)c4ccc5ccccc5c4)nc32)CC1 (stereo not shown) [Example 4, Naphthalene-2-carboxylic acid[4-(4-methylpiperazin-1-carbonyl)-4,5,6,7-tetrahydrobenzthiazol-2-yl]amide] |  | 48% | 
5 | O=C(Cc1cccs1)Nc1nc2c(s1)CCCC2C(=O)N1CCCC1CN1CCCC1 (stereo not shown) [Example 5, N-[4-(2-Pyrrolidin-1-ylmethylpyrrolidin-1-carbonyl)-4,5,6,7-tetrahydrobenzthiazol-2-yl]-2-thiophen-2-ylacetamide] | 41% |  | 
6 | COc1ccccc1CC(=O)Nc1nc2c(s1)CCCC2C(=O)N1CCN(Cc2cc(OC)c3c(c2)OCO3)CC1 (stereo not shown) [Example 6, N-{4-[4-(7-Methoxybenzo[1, 3]dioxol-5-ylmethyl)piperazin-1-carbonyl]-4,5,6,7-tetrahydrobenzthiazol-2-yl}-2-(2-methoxyphenyl)acetamide] | 51% |  | 
7 | CC1CCCCN1CCCNC(=O)C1CCCc2sc(NC(=O)C=Cc3ccco3)nc21 (stereo not shown) [Example 23, 2-(3-Furan-2-ylacryloylamino)-4,5,6,7-tetrahydrobenzthiazol-4-carboxylic acid [3-(2-methylpiperidin-1-yl)propyl]amid] | 57% |  | 
8 | CN(C)CCCNC(=O)C1CCCc2sc(NC(=O)CC(C)(C)C)nc21 (stereo not shown) [Example 24, 2-(3,3-Dimethylbutyrylamino)-4,5,6,7-tetrahydrobenzthiazol-4-carboxylic acid(3-dimethylaminopropyl)amide] | 89% |  | 
9 | COc1ccc(C(=O)Nc2nc3c(s2)CCCC3C(=O)N2CCN(Cc3ccc(Cl)cc3)CC2)cc1 (stereo not shown) [Example 25, N-{4-[4-(4-Chlorobenzyl)piperazin-1-carbonyl]-4,5,6,7-tetrahydrobenzthiazol-2-yl}-4-methoxybenzamide] | 53% |  | 
10 | O=C(Nc1nc2c(s1)CCCC2C(=O)N1CCCC1CN1CCCC1)c1ccc2ccccc2c1 (stereo not shown) [Example 26, Naphthalene-2-carboxylic acid[4-(2-pyrrolidin-1-ylmethylpyrrolidin-1-carbonyl)-4,5,6,7-tetrahydrobenzthiazol-2-yl]amide] |  | 80% | 
11 | CN(C)CCNC(=O)C1CCCc2sc(NC(=O)COc3ccccc3)nc21 (stereo not shown) [Example 30, 2-(2-Phenoxyacetylamino)-4,5,6,7-tetrahydrobenzthiazol-4-carboxylic acid(2-dimethylaminoethyl)amide] |  | 64% | 
12 | CCOc1ccccc1C(=O)Nc1nc2c(s1)CCCC2C(=O)N1CCCC1CN1CCCC1 (stereo not shown) [Example 31, 2-Ethoxy-N-[4-(2-pyrrolidin-1-ylmethylpyrrolidin-1-carbonyl)-4,5,6,7-tetrahydrobenzthiazol-2-yl]benzamide] | 59% |  | 
13 | O=C(Nc1nc2c(s1)CCCC2C(=O)N1CCN(CC(=O)N2CCCC2)CC1)c1ccc2ccccc2c1 (stereo not shown) [Example 32, Naphthalene-2-carboxylic acid{4-[4-(2-oxo-2-pyrrolidin-1-ylethyl)piperazin-1-carbonyl]-4,5,6,7-tetrahydrobenzthiazol-2-yl}amide] |  | 51% | 
14 | Cc1cc(C)cc(C(=O)Nc2nc3c(s2)CCCC3C(=O)NC2CCN(Cc3ccccc3SC(C)(C)C)C2)c1 (stereo not shown) [Example 35] |  | 41% | 
15 | CC=CC=CC(=O)Nc1nc2c(s1)CCCC2C(=O)NCC1CCN(Cc2ccc(-c3ccccc3)cc2)C1 (stereo not shown) [Example 37, 2-Hexa-2,4-dienoylamino-4,5,6,7-tetrahydrobenzthiazol-4-carboxylic acid (1-biphenyl-4-ylmethylpyrrolidin-3-yl)methylamide] | 44% |  | 
16 | CCCCCCNc1nc2c(s1)CCCC2C(=O)N(C)C1CCN(Cc2cc3ccccc3o2)C1 (stereo not shown) [Example 41, 2-Hexanylamino-4,5,6,7-tetrahydrobenzthiazol-4-carboxylic acid(1-benzofuran-2-ylmethylpyrrolidin-3-yl)methylamide] |  | 77% | 

Row | Compound | inhibition at 10 µM [1] | % Inhibition of 5-HT uptake [10 μM] [1] | other results
17 | CC1CCCCN1CCCNC(=O)C1CCCc2sc(NC(=O)COc3ccccc3)nc21 (stereo not shown) [Example 42, 2-(2-Phenoxyacetylamino)-4,5,6,7-tetrahydrobenzthiazol-4-carboxylic acid[3-(2-methylpiperidin-1-yl)propyl]amide] |  | 42% | 
18 | O=C(Nc1nc2c(s1)CCCC2C(=O)NCCN1CCCC1)c1ccc2ccccc2c1 (stereo not shown) [Example 43, 2-[(Naphthalene-2-carbonyl)amino]-4,5,6,7-tetrahydrobenzthiazol-4-carboxylic acid (2-pyrrolidin-1-ylethyl)amide] | 63% |  | 
19 | CN(C)c1ccc(CNC(=O)C2CCCc3sc(NC(=O)c4ccc5ccccc5c4)nc32)cc1 (stereo not shown) [Example 45, 2-[(Naphthalene-2-carbonyl)amino]-4,5,6,7-tetrahydrobenzthiazol-4-carboxylic acid 4-dimethylaminobenzylamide] | 42% |  | 
20 | CN1CCCC1CCNC(=O)C1CCCc2sc(NC(=O)COc3ccc(F)cc3)nc21 (stereo not shown) [Example 46, 2-[2-(4-Fluorophenoxy)acetylamino]-4,5,6,7-tetrahydrobenzthiazol-4-carboxylic acid[2-(1-methylpyrrolidin-2-yl)ethyl]amide] |  | 53% | 
21 | CCOc1ccccc1CN1CCC(CNC(=O)C2CCCc3sc(NC(=O)COc4ccccc4)nc32)C1 (stereo not shown) [Example 51, 2-(2-Phenoxyacetylamino)-4,5,6,7-tetrahydrobenzthiazol-4-carboxylic acid[1-(2-ethoxybenzyl)pyrrolidin-3-yl]methylamide] |  | 59% | 
22 | O=C(Nc1nc2c(s1)CCCC2C(=O)N1CCN(Cc2ccccc2F)CC1)c1ccc2ccccc2c1 (stereo not shown) [Example 53, Naphthalene-2-carboxylic acid{4-[4-(2-fluorobenzyl)piperazin-1-carbonyl]-4,5,6,7-tetrahydrobenzthiazol-2-yl}amide] |  | 42% | 
23 | O=C(Cc1cc(F)cc(F)c1)Nc1nc2c(s1)CCCC2C(=O)N1CCCC1CN1CCCC1 (stereo not shown) [Example 57, 2-(3,5-Difluorophenyl)-N-[4-(2-pyrrolidin-1-ylmethylpyrrolidin-1-carbonyl)-4,5,6,7-tetrahydrobenzthiazol-2-yl]acetamide] | 72% |  | 
24 | CCCCCC(=O)Nc1nc2c(s1)CCCC2C(=O)N1CCN(Cc2ccc(OC)c(F)c2)CC1 (stereo not shown) [Example 59, Hexanoic acid{4-[4-(3-fluoro-4-methoxybenzyl)piperazin-1-carbonyl]-4,5,6,7-tetrahydrobenzthiazol-2-yl}amide] |  | 46% | 
25 | O=C(Cc1cc(F)cc(F)c1)Nc1nc2c(s1)CCCC2C(=O)NCC1CCN(Cc2c(Cl)cccc2Cl)C1 (stereo not shown) [Example 62, 2-[2-(3,5-Difluorophenyl)acetylamino]-4,5,6,7-tetrahydrobenzthiazol-4-carboxylic acid[1-(2,6-dichlorobenzyl)pyrrolidin-3-yl]methylamide] |  | 53% | 
26 | CCCCCC(=O)Nc1nc2c(s1)CCCC2C(=O)N1CCN(Cc2cc3ccccc3o2)CC1 (stereo not shown) [Example 65, Hexanoic acid[4-(4-benzofuran-2-ylmethylpiperazin-1-carbonyl)-4,5,6,7-tetrahydrobenzthiazol-2-yl]amide] |  | 44% | 
27 | CN(CCCNC(=O)C1CCCc2sc(NC(=O)CC3CCCCC3)nc21)c1ccccc1 (stereo not shown) [Example 68, 2-(2-Cyclohexylacetylamino)-4,5,6,7-tetrahydrobenzthiazol-4-carboxylic acid [3-(methylphenyl-amino)propyl]amide] | 84% |  | 
28 | CCOc1ccccc1C(=O)Nc1nc2c(s1)CCCC2C(=O)NCCCN(C)c1ccccc1 (stereo not shown) [Example 69, 2-(2-Ethoxybenzoylamino)-4,5,6,7-tetrahydrobenzthiazol-4-carboxylic acid[3-(methylphenyl-amino)propyl]amide] |  | 80% | 
29 | O=C(CCc1ccccc1)Nc1nc2c(s1)CCCC2C(=O)N1CCN(c2ccc(C(F)(F)F)cn2)CC1 (stereo not shown) [Example 70, 3-Phenyl-N-{4-[4-(5-trifluoromethylpyridin-2-yl)piperazin-1-carbonyl]-4,5,6,7-tetrahydrobenzthiazol-2-yl}propionamide] | 44% |  | 
30 | O=C(Cc1cc(F)cc(F)c1)Nc1nc2c(s1)CCCC2C(=O)N1CCN(c2cccc(C(F)(F)F)c2)CC1 (stereo not shown) [Example 74, 2-(3,5-Difluorophenyl)-N-{4-[4-(3-trifluoromethylphenyl)piperazin-1-carbonyl]-4,5,6,7-tetrahydrobenzthiazol-2-yl}acetamide] | 82% |  | 
31 | O=C(C=Cc1ccco1)Nc1nc2c(s1)CCCC2C(=O)N1CCN(c2cccc(C(F)(F)F)c2)CC1 (stereo not shown) [Example 76, 3-Furan-2-yl-N-{4-[4-(3-trifluoromethylphenyl)piperazin-1-carbonyl]-4,5,6,7-tetrahydrobenzthiazol-2-yl}acrylamide] | 62% |  | 
